Source: EP4682145A1, “BENZOHETEROCYCLIC COMPOUND, AND PREPARATION METHOD THEREFOR AND USE THEREOF” (Cascade Pharmaceuticals, Inc., priority 2023, dated 2024)

Target: T1, human FFAR1 (GPR40) (Homo sapiens, UniProt O14842)
T1 construct: Flag; expressed in transfected cells; host or cells: HEK293T
Test: NFAT-RE-based reporter gene activity assay (Dual-Glo luciferase) for GPR40 agonistic activity in co-transfected HEK293T cells
Format: cell-based
Settings: 4-hour treatment; for Efficacy (%): class symbols
In short: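 Agonism read as NFAT-RE-driven firefly luciferase over Renilla control (Dual-Glo) after 4 h compound exposure, top concentration 1 µM, 10 half-log steps.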

T1 sequence (O14842 whole entry): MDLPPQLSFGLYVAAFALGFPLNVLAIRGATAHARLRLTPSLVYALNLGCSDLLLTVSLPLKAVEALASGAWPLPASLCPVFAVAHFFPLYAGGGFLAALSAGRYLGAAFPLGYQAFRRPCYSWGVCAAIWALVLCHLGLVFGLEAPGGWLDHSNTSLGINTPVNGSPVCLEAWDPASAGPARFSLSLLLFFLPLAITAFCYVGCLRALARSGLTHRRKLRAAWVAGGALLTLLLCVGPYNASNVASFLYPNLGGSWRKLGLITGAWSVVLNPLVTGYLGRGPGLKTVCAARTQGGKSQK

Row | SMILES | EC50 | Efficacy (%)
1 | COc1ccc(F)c(N2CCC(c3oc4cc([C@@H](CC(=O)O)C5CC5)ccc4c3C(=O)Nc3cc(F)ccc3Cl)CC2)c1 [Compound 341] | ≤ 10 nM | †† (150 ≥ Efficacy (%) > 100)
2 | COc1cccc(N2CCC(c3oc4cc([C@@H](CC(=O)O)C5CC5)ccc4c3C(C)OCC[C@@H](C)CCCC(C)C)CC2)c1 (stereo partly drawn) [Compound 414] | > 500 nM | ††† (Efficacy (%) > 150)
3 | COc1cccc(N2CCC(c3oc4cc([C@@H](CC(=O)O)C5CC5)ccc4c3-c3ccc(OC(C)C)cc3)CC2)c1 [Compound 33] | 10 to 100 nM | †† (150 ≥ Efficacy (%) > 100)
4 | COc1ccc(F)c(N2CCC(c3oc4cc(C(CC(=O)O)C5CC5)ccc4c3/C=C/C(C)(C)O)CC2)c1 (stereo not drawn) [Compound 368] | 100 to 500 nM | ††† (Efficacy (%) > 150)
5 | COc1cccc(N2CCC(c3oc4cc([C@@H](CC(=O)O)C5CC5)ccc4c3C(=O)Nc3cc(Cl)ccc3F)CC2)c1 [Compound 270] | 10 to 100 nM | ††††
6 | COC(=O)C(C)(C)n1cc(-c2c(C3CCN(c4cccc(OC)c4)CC3)oc3cc(C(CC(=O)O)C4CC4)ccc23)cn1 (stereo not drawn) [Compound 132] | 100 to 500 nM | ††† (Efficacy (%) > 150)
7 | COc1cccc(N2CCC(c3oc4cc(C(CC(=O)O)C5CC5)ccc4c3-c3cnn(C(C)(C)C(=O)N(C)C)c3)CC2)c1 (stereo not drawn) [Compound 53] | 100 to 500 nM | †† (150 ≥ Efficacy (%) > 100)
8 | COc1ccc(F)c(N2CCC(c3oc4cc(C(CC(=O)O)C5CC5)ccc4c3CC(C)OC)CC2)c1 (stereo not drawn) [Compound 394] | > 500 nM | †† (150 ≥ Efficacy (%) > 100)
9 | COc1cccc(N2CCC(c3oc4cc(OC(C)C(=O)O)ccc4c3-c3cnn(C(C)(C)C)c3)CC2)c1 (stereo not drawn) [Compound 65] | 100 to 500 nM | †† (150 ≥ Efficacy (%) > 100)
10 | CC(C)(C)c1ccc(-c2c(C3CCN(c4ccc5c(c4)OCO5)CC3)oc3cc([C@@H](CC(=O)O)C4CC4)ccc23)cc1 [Compound 213] | 10 to 100 nM | †† (150 ≥ Efficacy (%) > 100)
11 | COc1cccc(N2CCC(c3oc4cc(C(CC(=O)O)C5CC5)ccc4c3C(=O)Nc3nccn3C)CC2)c1 (stereo not drawn) [Compound 304] | 100 to 500 nM | ††† (Efficacy (%) > 150)
12 | COc1cccc(N2CCC(c3oc4cc([C@@H](CC(=O)O)C5CC5)ccc4c3-c3csc(C(C)(C)C)n3)CC2)c1 [Compound 108] | 10 to 100 nM | ††† (Efficacy (%) > 150)
13 | CC(C)(C)c1cccc(-c2c(-c3ccccc3)oc3cc(C(CC(=O)O)C4CC4)ccc23)c1 (stereo not drawn) [Compound 2] | > 500 nM | †† (150 ≥ Efficacy (%) > 100)
14 | CC(C)=CCc1c(C2CCN(c3ccc4c(c3)OCO4)CC2)oc2cc([C@@H](CC(=O)O)C3CC3)ccc12 [Compound 376] | 10 to 100 nM | †† (150 ≥ Efficacy (%) > 100)
15 | COc1cccc(N2CCC(c3oc4cc([C@@H](CC(=O)O)C5CC5)ccc4c3C(=O)Nc3cc(F)ccc3Br)CC2)c1 [Compound 271] | ≤ 10 nM | ††† (Efficacy (%) > 150)
16 | COc1cccc(N2CCC(c3oc4cc([C@@H](CC(=O)O)C5CC5)ccc4c3CNC(=O)C(C)(C)C)CC2)c1 [Compound 436] | > 500 nM | †† (150 ≥ Efficacy (%) > 100)
17 | COc1ccc(F)c(N2CCC(c3oc4cc(C(CC(=O)O)C5CC5)ccc4c3CCC(C)(C)C)CC2)c1 (stereo not drawn) [Compound 388] | 100 to 500 nM | †† (150 ≥ Efficacy (%) > 100)
18 | O=C(O)C[C@H](c1ccc2c(C(=O)Nc3cc(C(F)(F)F)ccc3Cl)c(C3CCN(c4ccc5c(c4)OCO5)CC3)oc2c1)C1CC1 [Compound 335] | ≤ 10 nM | †† (150 ≥ Efficacy (%) > 100)
19 | COc1ccc(F)c(N2CCC(c3oc4cc(C(CC(=O)O)C5CC5)ccc4c3-c3cccc(F)c3)CC2)c1 (stereo not drawn) [Compound 178] | 100 to 500 nM | †† (150 ≥ Efficacy (%) > 100)
20 | COc1ccc(F)c(N2CCC(c3oc4cc(C(CC(=O)O)C5CC5)c(F)cc4c3-c3ccc(C(C)(C)C)cc3)CC2)c1 (stereo not drawn) [Compound 223] | 100 to 500 nM | † (100 ≥ Efficacy (%) > 50)
21 | COCC(C)(C)n1cc(-c2c(C3CCN(c4cccc(OC)c4)CC3)oc3cc(C(CC(=O)O)C4CC4)ccc23)cn1 (stereo not drawn) [Compound 48] | 100 to 500 nM | †† (150 ≥ Efficacy (%) > 100)
22 | COc1cccc(N2CCC(c3oc4cc([C@@H](CC(=O)O)C5CC5)ccc4c3C(=O)Nc3cc(C)ccc3Cl)CC2)c1 [Compound 265] | ≤ 10 nM | ††† (Efficacy (%) > 150)
23 | COc1ccc(F)c(N2CCC(c3oc4cc(C(CC(=O)O)C5CC5)ccc4c3CCOC(C)C)CC2)c1 (stereo not drawn) [Compound 393] | 100 to 500 nM | †† (150 ≥ Efficacy (%) > 100)
24 | COc1ccc(F)c(N2CCC(c3oc4cc(C(CC(=O)O)C5CC5)ccc4c3CCC(C)(C)O)CC2)c1 (stereo not drawn) [Compound 390] | 100 to 500 nM | †† (150 ≥ Efficacy (%) > 100)

Row | SMILES | EC50 | Efficacy (%)
25 | CC(C)(C)n1cc(-c2c(C3CCN(c4cccc(OC(F)F)c4)CC3)oc3cc(C(CC(=O)O)C4CC4)ccc23)cn1 (stereo not drawn) [Compound 43] | 100 to 500 nM | †† (150 ≥ Efficacy (%) > 100)
26 | COc1ccc(F)c(N2CCC(c3oc4cc([C@@H](CC(=O)O)C5CC5)ccc4c3-c3nnc(C(C)(C)C)o3)CC2)c1 [Compound 142] | 100 to 500 nM | †† (150 ≥ Efficacy (%) > 100)
27 | CNC(=O)c1cc(-c2c(C3CCN(c4cccc(OC)c4)CC3)oc3cc(C(CC(=O)O)C4CC4)ccc23)cn1C (stereo not drawn) [Compound 82] | 100 to 500 nM | † (100 ≥ Efficacy (%) > 50)
28 | COc1ccc(F)c(N2CCC(c3oc4cc(C(CC(=O)O)C5CC5)ccc4c3C/C=C/C(C)C)CC2)c1 (stereo not drawn) [Compound 371] | 100 to 500 nM | †† (150 ≥ Efficacy (%) > 100)
29 | COc1cccc(N2CCC(c3oc4cc([C@@H](CC(=O)O)C5CC5)ccc4c3C(=O)Nc3cc([N+](=O)[O-])ccc3Cl)CC2)c1 [Compound 276] | 10 to 100 nM | †† (150 ≥ Efficacy (%) > 100)
30 | COc1cccc(N2CCC(c3oc4cc([C@@H](CC(=O)O)C5CC5)ccc4c3C(=O)Nc3ccccc3C)CC2)c1 [Compound 239] | 10 to 100 nM | ††† (Efficacy (%) > 150)
31 | COc1ccc(C#N)c(N2CCC(c3oc4cc(C(CC(=O)O)C5CC5)ccc4c3-c3cnn(C(C)(C)C)c3)CC2)c1 (stereo not drawn) [Compound 44] | 100 to 500 nM | †† (150 ≥ Efficacy (%) > 100)
32 | COc1cccc(N2CCC(c3oc4cc(C(CC(=O)O)C5CC5)ccc4c3/C=C/C3CC3)CC2)c1 (stereo not drawn) [Compound 364] | 100 to 500 nM | †† (150 ≥ Efficacy (%) > 100)
33 | COc1cccc(N2CCC(c3oc4cc(C(CC(=O)O)C5CC5)ccc4c3-c3nnc(C(C)(C)C)s3)CC2)c1 (stereo not drawn) [Compound 118] | 10 to 100 nM | †† (150 ≥ Efficacy (%) > 100)
34 | COc1ccc(F)c(N2CCC(c3oc4cc([C@H](C5CC5)C(C)C(=O)O)ccc4c3-c3ccc(C(C)(C)C)cc3)CC2)c1 (stereo partly drawn) [Compound 218] | 100 to 500 nM | ††† (Efficacy (%) > 150)
35 | COc1cccc(N2CCC(c3oc4cc([C@@H](CC(=O)O)C5CC5)ccc4c3-c3nc(C(C)(C)C)co3)CC2)c1 [Compound 117] | 10 to 100 nM | †† (150 ≥ Efficacy (%) > 100)
36 | COc1cccc(N2CCC(c3oc4cc([C@@H](CC(=O)O)C5CC5)ccc4c3C(C)OCC3CC3)CC2)c1 (stereo partly drawn) [Compound 417] | 100 to 500 nM | ††† (Efficacy (%) > 150)
37 | CCCCC[C@H]1CC[C@H](c2nnc(-c3c(C4CCN(c5cccc(OC)c5)CC4)oc4cc(C(CC(=O)O)C5CC5)ccc34)o2)CC1 (relative stereo) [Compound 138] | 100 to 500 nM | †† (150 ≥ Efficacy (%) > 100)
38 | COc1cccc(N2CCC(c3oc4cc(C(CC(=O)O)C5CC5)ccc4c3C(=O)Nc3ccc(C)cc3F)CC2)c1 (stereo not drawn) [Compound 251] | 100 to 500 nM | †† (150 ≥ Efficacy (%) > 100)
39 | COc1ccccc1N1CCC(c2oc3cc(C(CC(=O)O)C4CC4)ccc3c2-c2cccc(C(C)(C)C)c2)CC1 (stereo not drawn) [Compound 21] | 100 to 500 nM | †† (150 ≥ Efficacy (%) > 100)
40 | COc1cccc(N2CCC(c3oc4cc([C@@H](CC(=O)O)C5CC5)ccc4c3C(=O)N(C)c3cc(C(F)(F)F)ccc3Cl)CC2)c1 [Compound 281] | 100 to 500 nM | †† (150 ≥ Efficacy (%) > 100)
41 | COc1ccc(F)c(N2CCC(c3oc4cc([C@@H](CC(=O)O)C5CC5)ccc4c3-c3ccc(C(C)(C)O)cc3)CC2)c1 [Compound 177] | 100 to 500 nM | †† (150 ≥ Efficacy (%) > 100)
42 | COc1cccc(N2CCC(c3oc4cc(C(CC(=O)O)C5CC5)ccc4c3-c3nnc(C(C)C)o3)CC2)c1 (stereo not drawn) [Compound 123] | 100 to 500 nM | †† (150 ≥ Efficacy (%) > 100)
43 | COc1ccc(F)c(N2CCC(c3oc4cc(C(CC(=O)O)C5CC5)ccc4c3-c3ccc(N(C(C)=O)C(C)C)cc3)CC2)c1 (stereo not drawn) [Compound 186] | 100 to 500 nM | † (100 ≥ Efficacy (%) > 50)
44 | COc1cccc(N2CCC(c3oc4cc(C(CC(=O)O)C5CC5)ccc4c3-c3cnc(C)s3)CC2)c1 (stereo not drawn) [Compound 101] | 100 to 500 nM | †† (150 ≥ Efficacy (%) > 100)
45 | CCCCC(C)(C)c1nnc(-c2c(C3CCN(c4cccc(OC)c4)CC3)oc3cc(C(CC(=O)O)C4CC4)ccc23)o1 (stereo not drawn) [Compound 130] | 10 to 100 nM | †† (150 ≥ Efficacy (%) > 100)
46 | COc1ccc(F)c(N2CCC(c3oc4cc(CCC(=O)O)ccc4c3-c3cccc(C(C)(C)C)c3)CC2)c1 [Compound 231] | 100 to 500 nM | † (100 ≥ Efficacy (%) > 50)
47 | COc1cccc(N2CCC(c3oc4cc(C(CC(=O)O)C5CC5)ccc4c3C(=O)Nc3cc(C(C)(C)C)no3)CC2)c1 (stereo not drawn) [Compound 301] | 100 to 500 nM | †† (150 ≥ Efficacy (%) > 100)
48 | CC(C)(C)c1cccc(-c2c(C3CCN(c4ccccc4F)CC3)oc3cc(C(CC(=O)O)C4CC4)ccc23)c1 (stereo not drawn) [Compound 9] | 100 to 500 nM | †† (150 ≥ Efficacy (%) > 100)
